Consider two molecules from patent US20200316056A1, “Pain Medicine Combination and Uses Thereof” (Mindlab, LLC, priority 2013, published 2020).

For the assay, the system named is rats. Nature of the assay: Ugo Basile Tail Flick method (Example 2). The following applies: for Tail Flick Time (seconds) after administration: individual rats 1-7; for Tail Flick Time (seconds) after administration, Mean: mean of 7 rats; for Tail Flick Time (seconds) after administration, Median: median of 7 rats. The format is in vivo. The protocol: The addition of quinidine to a pharmaceutical composition of morphine, and dextromethorphan was tested using Ugo Basile Tail Flick method. This method is often used for in vivo screening of multiple drugs with analgesic activity. The animal was placed and held on the Ugo Basile Tail Flick instrument surface with the tail straight back and across an infrared light source. The heat source and timer are turned on by a foot pedal press, and automatically switch off when the animal flicks its tail off the emitter. Latency time is measured and analyzed as an analgesic effect. Each preparation was tested in 7 rats.
A general note: Thermal pain tests record how soon the animal reacts.

Each structure is given as a SMILES string. Values joined by “and” are separate entries in the source; they are usually repeats but may differ in a detail not shown here. Equal entries are not always repeated.

In the case of `CN1CC[C@]23c4c5ccc(O)c4O[C@H]2[C@@H](O)C=C[C@H]3[C@H]1C5` [Morphine], the “Tail Flick Time (seconds) after administration” value (1 h after administration) is 5.80 s and 5.10 s and 6.50 s and 30.10 s and 6.80 s and 10.50 s and 3.70 s; the “Tail Flick Time (seconds) after administration” value (3 h after administration) was 6.30 s and 7.60 s and 2.70 s and 9.50 s and 5.30 s and 5.90 s and 4.80 s; the “Tail Flick Time (seconds) after administration” value (5 h after administration) is 4.80 seconds and 6.60 seconds and 5.90 seconds and 10.90 seconds and 4.90 seconds and 4.60 seconds (2×); the “Tail Flick Time (seconds) after administration” value (8 h after administration) is 6.90 s and 10.50 s and 8.30 s and 8.50 s and 6.70 s and 6.30 s and 3.50 s; the “Tail Flick Time (seconds) after administration” value (10 h after administration) was 4.70 s and 4.10 s and 4.80 s and 6.50 s and 6.20 s and 4.20 s and 2.90 s; the “Tail Flick Time (seconds) after administration” value (14 h after administration) is 3.50 seconds and 7.50 seconds and 5.10 seconds (2×) and 7.80 seconds and 2.90 seconds and 4.10 seconds. In addition, the “Tail Flick Time (seconds) after administration” value (24 h after administration) is 4.80 seconds (2×) and 7.60 seconds and 4.30 seconds and 3.40 seconds and 4.90 seconds and 6.10 seconds. For the same molecule, the “Tail Flick Time (seconds) after administration, Mean” value (from here on “Tail Flick Time (seconds) … Mean”) (1 h after administration) stood at 9.79 s; the “Tail Flick Time (seconds) … Mean” value (3 h after administration) came to 6.01 s; the “Tail Flick Time (seconds) … Mean” value (5 h after administration) is 6.04 s; the “Tail Flick Time (seconds) … Mean” value (8 h after administration) was 7.24 s; the “Tail Flick Time (seconds) … Mean” value (10 h after administration) stood at 4.77 s; the “Tail Flick Time (seconds) … Mean” value (14 h after administration) stood at 5.14 s. Moreover, where the note is “24 h after administration”, the “Tail Flick Time (seconds) … Mean” value amounted to 5.13 s. Moreover, the “Tail Flick Time (seconds) after administration, Median” value (shortened to “Tail Flick Time (seconds) … Median”) (1 h after administration) came to 6.50 s; the “Tail Flick Time (seconds) … Median” value (1 h after administration, listed as morphine) amounted to 6.5 s; the “Tail Flick Time (seconds) … Median” value (3 h after administration) turned out to be 5.90 s; the “Tail Flick Time (seconds) … Median” value (5 h after administration) turned out to be 4.90 s; the “Tail Flick Time (seconds) … Median” value (8 h after administration) was 6.90 s; the “Tail Flick Time (seconds) … Median” value (10 h after administration) came to 4.70 s. In addition, the “Tail Flick Time (seconds) … Median” value by setting is: (14 h after administration) 5.10 s; (24 h after administration) 4.80 s.

For the molecule `COc1ccc2c(c1)[C@]13CCCC[C@@H]1[C@H](C2)N(C)CC3` [Dextromethorphan], the “Tail Flick Time (seconds) after administration” value runs as follows: (1 h after administration) 4.10 s and 3.90 s and 3.30 s and 4.80 s and 5.60 s and 3.70 s and 7.30 s; (3 h after administration) 3.90 seconds and 4.60 seconds (2×) and 4.50 seconds and 5.40 seconds and 3.30 seconds and 8.70 seconds; (5 h after administration) 4.60 seconds and 6.40 seconds (2×) and 2.90 seconds and 5.10 seconds and 4.10 seconds and 4.50 seconds; (8 h after administration) 5.40 s and 5.10 s and 3.70 s and 7.30 s and 4.30 s and 3.80 s and 3.60 s; (10 h after administration) 3.10 seconds and 5.50 seconds and 4.30 seconds and 4.80 seconds (2×) and 3.90 seconds and 6.60 seconds; (14 h after administration) 3.90 seconds (2×) and 5.20 seconds and 5.60 seconds and 3.80 seconds and 5.10 seconds and 4.10 seconds. For the same molecule, the “Tail Flick Time (seconds) after administration” value (24 h after administration) was 3.50 seconds (2×) and 4.70 seconds and 4.30 seconds and 5.20 seconds and 3.70 seconds and 3.10 seconds. Besides, the “Tail Flick Time (seconds) … Mean” value runs as follows: (1 h after administration) 4.67 s; (3 h after administration) 5.00 s; (5 h after administration) 4.86 s; (8 h after administration) 4.74 s; (10 h after administration) 4.71 s; (14 h after administration) 4.51 s. Moreover, the “Tail Flick Time (seconds) … Mean” value (24 h after administration) stood at 4.00 s. The “Tail Flick Time (seconds) … Median” value by setting is: (1 h after administration) 4.10 s; (3 h after administration) 4.60 s; (5 h after administration) 4.60 s; (8 h after administration) 4.30 s; (10 h after administration) 4.80 s; (14 h after administration) 4.10 s. In addition, the “Tail Flick Time (seconds) … Median” value (24 h after administration) is 3.70 s.
